In one test the test system is Erysiphe graminis. The experiment in a line: Erysiphe graminis potting method. It is filed as in vivo. Here is the method: The fungicidal activity of the control agents and target compounds are determined. The test and investigation method refers to SOP-SC-1116 Erysiphe graminis potting method in disinfectant rolls written by KANGZHUO and GUBAOGEN in “Standard operation specification for testing biological activity of pesticides”.

For test [1], the system named is Sphaerotheca fuliginea. The experiment in a line: Sphaerotheca fuliginea potting method. In kind it is in vivo. The conditions noted are these: 100 mg/L; for pest or weed control at 100 µg/mL: Podosphaera fuliginea, read-out: Sphaerotheca fuliginea control rating. The protocol:
The fungicidal activity of the control agents and target compounds are determined. The test and investigation method refers to SOP-SC-1101 sphaerotheca fuliginea potting method in disinfectant rolls written by KANGZHUO and GUBAOGEN in “Standard operation specification for testing biological activity of pesticides”.

The next test deals with Phytophthora infestans. In kind it is cell-based.
For the next test, the system named is Sclerotinia sclerotiorum. The test can be described thus: Mycelial growth rate method. It is filed as cell-based.
In another test the test system is Gibberella zeae. In kind it is cell-based.
A further test deals with Rhizoctonia cerealis. The test can be described thus: Mycelial growth rate method. It is filed as cell-based.
A further test concerns Alternaria alternata. The experiment in a line: Mycelial growth rate method. It is filed as cell-based.
In another test the test system is Alternaria solani. The experiment in a line: Mycelial growth rate method. It is filed as cell-based.
Another test has as its system Phytophthora capsici. The experiment in a line: Mycelial growth rate method. It is filed as cell-based.
The test system of test [2] is Fusarium wilt of water melon. The test can be described thus: Mycelial growth rate method. In kind it is cell-based.
For a further test, the system named is Corn big spot. The test can be described thus: Mycelial growth rate method. In kind it is cell-based.
Test [3] concerns Sphaerotheca fuliginea. The experiment in a line: Field test of sphaerotheca fuliginea. It is filed as in vivo. The conditions noted are these: 100 mg/L. Here is the method: The test is carried out according to GB/T17980.30-2000 of pesticide field efficacy test guidelines. The survey method is to randomly take four points for each cell and survey all leaves of 2 plants per point. And investigating the sphaerotheca fuliginea incidence before the first application, and investigating the sphaerotheca fuliginea incidence 7 and 14 days after the second application respectively, and calculating the disease index and the controlling effect.

Test [4] concerns Fusarium fujikura. The test can be described thus: Therapeutic activity against rice bakanae disease. It is filed as in vivo. The conditions noted are these: 5 μg/mL, solvent DMSO. From the text: (§1) Test of protective activity and therapeutic activity of Compound 1 against rice bakanae disease.
(§2) The test and investigation method refers to SOP-SC-1112 rice bakanae disease potting method in disinfectant rolls written by KANGZHUO and GUBAOGEN in “Standard operation specification for testing biological activity of pesticides”.
(§3) The phenamacril is a mainstream medicament for preventing and treating the rice bakanae disease at present, resistant strains are more and more along with long-time use, and […] strains showing sensitivity and one strain showing resistance to the […] are selected as test strains.
(§4) Four Fusarium fujikura SX18-32, SX18-50, SX18-59 and SX18-63 are selected for testing strains, and the current mainstream commercial bactericide phenamacril is selected as a positive control. Wherein SX18-32, SX18-50 and SX18-59 show sensitivity to phenamacril and SX18-63 show resistance to phenamacril.

In test [5] the test system is Fusarium fujikura. The experiment in a line: Protective activity against rice bakanae disease. In kind it is in vivo. Particulars: 5 μg/mL, solvent DMSO.
Source text: as §1, §2, §3, §4

A further test has as its target T1, succinate dehydrogenase (Sus scrofa, UniProt A5GZW8+D0VWV4+Q007T0).
T1 construct: isolated from porcine hearts; from tissue; host or cells: porcine heart
The test can be described thus: Enzyme activity assay, succinate dehydrogenase (DCIP reduction). It is filed as biochemical, porcine. Particulars: read-out: Inhibitors (10 μM, SQR). An outline of the steps: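 Porcine heart succinate dehydrogenase (2 nM) in 100 mM sodium phosphate pH 7.4, 0.3 mM EDTA, 20 mM sodium succinate and 53 μM DCIP at 23° C with stirring. DCIP reduction followed at 600 nm (ε 21 mM^−1 cm^−1); linear slope minus baseline gives initial rate.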

Where [6] appears, read: Blumeria graminis, 100 mg/L, read-out: Erysiphe graminis control rating.

Where two headings read alike, the source gives them in different places.

This is an account of results in patent US12540118B2, “Dendrene amide compound, bactericide and use thereof” (Jiangsu Flag Chemical Industry Co., Ltd., priority 2020, dated 2026).

T1 sequence (Q0QF01 43-664 partner): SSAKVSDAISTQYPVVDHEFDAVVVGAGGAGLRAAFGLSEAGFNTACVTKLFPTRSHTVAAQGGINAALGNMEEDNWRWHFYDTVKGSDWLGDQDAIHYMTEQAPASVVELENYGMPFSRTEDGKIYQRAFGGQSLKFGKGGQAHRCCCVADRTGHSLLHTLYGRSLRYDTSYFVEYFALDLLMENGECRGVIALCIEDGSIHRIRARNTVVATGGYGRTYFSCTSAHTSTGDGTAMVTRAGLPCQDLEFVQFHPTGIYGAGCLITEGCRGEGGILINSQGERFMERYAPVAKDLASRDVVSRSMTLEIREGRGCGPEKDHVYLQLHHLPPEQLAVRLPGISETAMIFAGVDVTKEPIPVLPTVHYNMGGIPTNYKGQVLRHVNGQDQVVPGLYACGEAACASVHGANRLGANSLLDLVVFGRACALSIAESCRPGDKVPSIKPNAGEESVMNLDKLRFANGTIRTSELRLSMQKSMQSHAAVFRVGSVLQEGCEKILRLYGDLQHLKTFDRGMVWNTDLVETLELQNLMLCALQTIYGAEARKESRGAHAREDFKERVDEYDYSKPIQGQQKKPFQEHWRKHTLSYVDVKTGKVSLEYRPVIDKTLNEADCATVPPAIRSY
T1 sequence (Q007T0 29-280): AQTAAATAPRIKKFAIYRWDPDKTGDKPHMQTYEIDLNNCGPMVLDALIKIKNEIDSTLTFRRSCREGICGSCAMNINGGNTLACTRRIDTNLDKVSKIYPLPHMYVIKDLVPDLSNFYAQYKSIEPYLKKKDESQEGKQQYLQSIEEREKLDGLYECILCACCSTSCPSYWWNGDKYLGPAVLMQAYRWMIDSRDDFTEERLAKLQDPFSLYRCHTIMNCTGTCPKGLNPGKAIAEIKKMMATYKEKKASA
T1 sequence (D0VWV4 30-169): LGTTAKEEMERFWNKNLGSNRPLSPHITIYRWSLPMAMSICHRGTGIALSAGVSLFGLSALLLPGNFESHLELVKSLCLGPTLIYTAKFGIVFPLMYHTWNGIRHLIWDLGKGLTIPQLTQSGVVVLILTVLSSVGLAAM
T1 sequence (A5GZW8 57-159 limits assumed): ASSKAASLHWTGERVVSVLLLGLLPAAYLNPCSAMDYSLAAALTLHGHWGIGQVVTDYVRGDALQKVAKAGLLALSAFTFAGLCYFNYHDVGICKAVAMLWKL

Regarding `CON(C(=O)c1cn(C)nc1C(F)F)C(C)Cc1c(Cl)cc(Cl)cc1Cl` (stereo not drawn) [Pydiflumetofen, reference compound], the “Erysiphe graminis control rating” value in the test on Erysiphe graminis (6.25 mg/L), with Erysiphe graminis (25 mg/L) and in the test on Erysiphe graminis (100 mg/L) was “A (80% ≤ A ≤ 100%)” throughout. For the same molecule, the “Sphaerotheca fuliginea control rating” value in the test on Sphaerotheca fuliginea [1] is given as “A (80% ≤ A ≤ 100%)”. The “Inhibition ratio (%) Phytophthora infestans” value in the test on Phytophthora infestans (1.5625 μg/mL), with Phytophthora infestans (6.25 μg/mL) and in the test with Phytophthora infestans (25 μg/mL) was “A (80% ≤ A ≤ 100%)” each time. Also, the “Inhibition ratio (%) Sclerotinia sclerotiorum” value with Sclerotinia sclerotiorum (1.5625 μg/mL) is “C (C <70%)”; in the test with Sclerotinia sclerotiorum (6.25 μg/mL) it was “A (80% ≤ A ≤ 100%)”; in the test with Sclerotinia sclerotiorum (25 μg/mL), “A (80% ≤ A ≤ 100%)”. In addition, the “Inhibition ratio (%) Gibberella zeae” value in the test on Gibberella zeae (1.5625 μg/mL), with Gibberella zeae (6.25 μg/mL) and with Gibberella zeae (25 μg/mL) was “A (80% ≤ A ≤ 100%)” throughout. Besides, the “Inhibition ratio (%) Rhizoctonia cerealis” value in the test with Rhizoctonia cerealis (1.5625 μg/mL), in the test with Rhizoctonia cerealis (6.25 μg/mL) and with Rhizoctonia cerealis (25 μg/mL) was “A (80% ≤ A ≤ 100%)” each time. In addition, the “Inhibition ratio (%) Alternaria alternata” value in the test on Alternaria alternata (1.5625 μg/mL), with Alternaria alternata (6.25 μg/mL) and with Alternaria alternata (25 μg/mL) was “A (80% ≤ A ≤ 100%)” in each case. For the same molecule, the “Inhibition ratio (%) Alternaria solani” value with Alternaria solani (1.5625 μg/mL), with Alternaria solani (6.25 μg/mL) and in the test on Alternaria solani (25 μg/mL) was “A (80% ≤ A ≤ 100%)” in each case. Further, the “Inhibition ratio (%) Phytophthora capsici” value in the test on Phytophthora capsici (1.5625 μg/mL) is given as “B (70% ≤ B < 80%)”; in the test on Phytophthora capsici (6.25 μg/mL), “A (80% ≤ A ≤ 100%)”; in the test on Phytophthora capsici (25 μg/mL) it was “A (80% ≤ A ≤ 100%)”. In addition, the “Inhibition ratio (%) Fusarium wilt of water melon” value in test [2] (1.5625 μg/mL), in test [2] (6.25 μg/mL) and in test [2] (25 μg/mL) was “A (80% ≤ A ≤ 100%)” throughout. Moreover, the “Inhibition ratio (%) Corn big spot” value with Corn big spot (1.5625 μg/mL), in the test on Corn big spot (6.25 μg/mL) and in the test with Corn big spot (25 μg/mL) was “A (80% ≤ A ≤ 100%)” throughout. This molecule also returned a Controlling effect % in the test on Sphaerotheca fuliginea [3] of 92%.

With `CCOC(=O)C(C#N)=C(N)c1ccccc1` [Phenamacril, reference compound], the Therapeutic activity in the test on Fusarium fujikura [4] (strain SX18-32 (S)) was 23.8%; in the test with Fusarium fujikura [4] (strain SX18-59 (S)), 50.0%; with Fusarium fujikura [4] (strain SX18-59 (S), listed as phenamacril), “about 50%”; in the test with Fusarium fujikura [4] (strain SX18-63 (R)), 0%; in the test with Fusarium fujikura [4] (strain SX18-63 (R), listed as phenamacril) it was “almost no therapeutic activity”. Further, the figures for the Protective activity in the test with Fusarium fujikura [5] (strain SX18-32 (S)), in the test with Fusarium fujikura [5] (strain SX18-59 (S)) and in the test on Fusarium fujikura [5] (strain SX18-63 (R)) were 83.6%, 58.8% and 19.6%, respectively.

On to `C=C(c1ccc(C(C)C)cc1C)C(C)N(C(=O)c1c(C(F)F)nn(C)c1F)C1CC1` (stereo not drawn) [Compound 96], for which the inhibition at 10 µM at succinate dehydrogenase was above 90%. For the same molecule, the pest or weed control at 100 µg/mL with Erysiphe graminis (setting [6]) and in the test on Sphaerotheca fuliginea [1] was 80 to 100% in each case.

Turning to `Cn1nc(C(F)F)c(C(=O)N(CC(=C(Cl)Cl)c2cccc(Cl)c2)C2CC2)c1F` [Compound 117], the inhibition at 10 µM on succinate dehydrogenase is above 90%. Besides, the pest or weed control at 100 µg/mL with Erysiphe graminis (setting [6]) and in the test with Sphaerotheca fuliginea [1] was 80 to 100% each time.

On to `Cn1nc(C(F)F)c(C(=O)N(CC(=C(Cl)Cl)c2ccccc2Br)C2CC2)c1F` [Compound 132], for which the inhibition at 10 µM at succinate dehydrogenase was above 90%. Also, the pest or weed control at 100 µg/mL with Erysiphe graminis (setting [6]) and with Sphaerotheca fuliginea [1] was 80 to 100% each time.

Consider `C=C(CN(C(=O)c1c(C(F)F)nn(C)c1F)C1CC1)c1c(C)cccc1C` [Compound 35], for which the inhibition at 10 µM at succinate dehydrogenase is above 90%. Also, the pest or weed control at 6.25 µg/mL with Erysiphe graminis (Blumeria graminis, 6.25 mg/L, read-out: Erysiphe graminis control rating) lay within 70 to 80%. Also, in the test with Erysiphe graminis (Blumeria graminis, 25 mg/L, read-out: Erysiphe graminis control rating), the pest or weed control at 25 µg/mL lay within 80 to 100%. The pest or weed control at 100 µg/mL in the test on Erysiphe graminis (setting [6]) and in the test with Sphaerotheca fuliginea [1] was 80 to 100% each time.

As for `Cc1cc(C)cc(C(=C(Cl)Cl)C(C)N(C(=O)c2c(C(F)F)nn(C)c2F)C2CC2)c1` (stereo not drawn) [Compound 205], at succinate dehydrogenase, the inhibition at 10 µM was above 90%. Further, the pest or weed control at 100 µg/mL in the test with Erysiphe graminis (setting [6]) and in the test on Sphaerotheca fuliginea [1] was 80 to 100% in each case.

Take `C=C(CN(C(=O)c1c(C(F)F)nn(C)c1F)C1CC1)c1cccc(Cl)c1` [Compound 16]: the inhibition at 10 µM at succinate dehydrogenase was above 90%. The pest or weed control at 100 µg/mL with Erysiphe graminis (setting [6]) was in the range of 80 to 100%; with Sphaerotheca fuliginea [1], 70 to 80%.

Regarding `C=C(CN(C(=O)c1c(C(F)F)nn(C)c1F)C1CC1)c1ccc(Br)cc1` [Compound 27], the inhibition at 10 µM at succinate dehydrogenase was above 90%. For the same molecule, the pest or weed control at 100 µg/mL in the test on Erysiphe graminis (setting [6]) and with Sphaerotheca fuliginea [1] was 80 to 100% each time.
